Experiment: Inhibition of human alphaVbeta3 receptor expressed in african green monkey Vero E6 cells assessed as inhibition of SNV infection in cells by immunofluorescent assay

Row | SMILES | EC50
1 | O=C(NCc1cccs1)C(Cc1ccccc1)NS(=O)(=O)c1ccc2nsnc2c1 (racemic) [rac-2-(benzo[c][1,2,5]thiadiazole-5-sulfonamido)-3-phenyl-N-(thiophen-2-ylmethyl)propanamide] | 2.5 nM
2 | O=C(NCc1ccc2c(c1)OCO2)C(Cc1ccccc1)NS(=O)(=O)c1cccc2cccnc12 (racemic) [rac-N-(benzo[d][1,3]dioxol-5-ylmethyl)-3-phenyl-2-(quinoline-8-sulfonamido)propanamide] | 1.6 nM
3 | O=c1c(C=NCc2ccco2)c(CSc2ccc(Cl)cc2)[nH]n1-c1nc2ccccc2s1 [2-(benzo[d]thiazol-2-yl)-5-((4-chlorophenylthio)methyl)-4-((furan-2-ylmethylimino)methyl)-1H-pyrazol-3(2H)-one] | 1.3 nM

Source: BindingDB's records for doi:10.1016/j.bmcl.2010.09.092 (University of New Mexico School of Medicine, 2010)
